What was measured:
Mushroom tyrosinase [1] = molecular target: T1, Mushroom tyrosinase (Agaricus bisporus, UniProt C7FF04); assay: Mushroom tyrosinase inhibitory assay (spectrophotometric, L-tyrosine substrate); type: biochemical; conditions: qualitative statement; comparison with positive control kojic acid where stated
Protocol: The compounds were firstly dissolved in DMSO at a concentration of 1.0 mg/mL and then diluted to different concentrations with DMSO. […] The reaction mixtures (3.0 mL) were vortexed and the initial absorbance at 492 nm was measured. After incubation for 20 min at 37 °C, the final absorbance at the same wavelength was taken. […] B1 is the absorbance at 492 nm of test sample at 0 min, B2 is the absorbance at 492 nm of test sample at 20 min.

Mushroom tyrosinase [2] = molecular target: T1, Mushroom tyrosinase; set-up: method as in PMID 26616992; conditions: single resorcinol derivatives, weak activity; read-out: Tyrosinase inhibitory activity IC50; cited from earlier work

T1 sequence (G1K3P4 entry or part of it): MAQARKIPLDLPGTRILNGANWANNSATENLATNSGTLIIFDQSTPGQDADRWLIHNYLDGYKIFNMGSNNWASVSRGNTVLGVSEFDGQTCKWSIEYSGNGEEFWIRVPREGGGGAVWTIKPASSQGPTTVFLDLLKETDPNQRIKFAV
T1 sequence (C7FF04 1-392): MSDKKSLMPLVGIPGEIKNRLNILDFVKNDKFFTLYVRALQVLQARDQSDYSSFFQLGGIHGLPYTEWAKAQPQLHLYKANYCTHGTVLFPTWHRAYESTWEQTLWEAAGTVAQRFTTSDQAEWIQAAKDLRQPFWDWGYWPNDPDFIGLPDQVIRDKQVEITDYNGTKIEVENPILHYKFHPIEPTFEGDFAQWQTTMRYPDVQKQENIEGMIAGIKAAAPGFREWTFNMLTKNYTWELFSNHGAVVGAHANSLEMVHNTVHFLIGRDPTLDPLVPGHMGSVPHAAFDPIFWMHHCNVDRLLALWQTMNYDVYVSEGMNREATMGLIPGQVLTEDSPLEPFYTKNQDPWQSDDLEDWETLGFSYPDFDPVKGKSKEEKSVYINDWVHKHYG

SMILES	Mushroom tyrosinase inhibitory activity, result in words (Mushroom tyrosinase [1])	IC50 (Mushroom tyrosinase [2])
Oc1cc(O)cc(/C=C/c2ccc(O)cc2O)c1 [Oxyresveratrol (5), oxyresveratrol]	much stronger	
CC(C)=CCc1c(O)ccc(C(=O)/C=C/c2ccc(O)cc2O)c1O [Morachalcone A (4), morachalcone A]	much stronger	
O=C(/C=C/c1ccc(O)cc1O)c1ccc(O)cc1O [2,4,2′,4′-Tetrahydroxychalcone (3), 2,4,2′,4′-Tetrahydroxychalcone]	much stronger	
Oc1cc(O)cc(-c2cc3ccc(O)cc3o2)c1 [Moracin M (14), moracin M]	much stronger	
CC(=O)c1ccc(O)cc1O [2,4-dihydroxyacetophenone]		> 200 µM
O=C1CC(c2ccc(O)cc2O)Oc2cc(O)cc(O)c21 (stereo not shown) [Steppogenin (2), steppogenin]	much stronger	
C=C(C)C(=O)Cc1c(-c2ccc(O)cc2O)oc2c3c(cc(O)c2c1=O)OC(C)(C)C=C3 [Morusone (1), 2-(2,4-dihydroxyphenyl)-5-hydroxy-8,8-dimethyl-3-(3-methyl-2-oxo-but-3-enyl)-8H-pyrano[2,3-f]chromen-4-one]	weak	

— paper PMC6274457, “Characterization of a New Flavone and Tyrosinase Inhibition Constituents from the Twigs of Morus alba L” (Molecules, 2016)
